One compound from patent US20250281498A1, “FUSED AMINO PYRIMIDINE COMPOUNDS FOR TREATMENT OF SYNUCLEINOPATHIES AND TDP-43 PROTEINOPATHIES” (Ovid Therapeutics Inc., priority 2024, published 2025) can be followed below.

SMILES strings stand for the structures.

In one data set the target is T1, KCC3 (Homo sapiens, UniProt Q9UHW9).
T1 construct: expressed in transfected cells; host or cells: HEK-293
T1 sequence (Q9UHW9 1-1150): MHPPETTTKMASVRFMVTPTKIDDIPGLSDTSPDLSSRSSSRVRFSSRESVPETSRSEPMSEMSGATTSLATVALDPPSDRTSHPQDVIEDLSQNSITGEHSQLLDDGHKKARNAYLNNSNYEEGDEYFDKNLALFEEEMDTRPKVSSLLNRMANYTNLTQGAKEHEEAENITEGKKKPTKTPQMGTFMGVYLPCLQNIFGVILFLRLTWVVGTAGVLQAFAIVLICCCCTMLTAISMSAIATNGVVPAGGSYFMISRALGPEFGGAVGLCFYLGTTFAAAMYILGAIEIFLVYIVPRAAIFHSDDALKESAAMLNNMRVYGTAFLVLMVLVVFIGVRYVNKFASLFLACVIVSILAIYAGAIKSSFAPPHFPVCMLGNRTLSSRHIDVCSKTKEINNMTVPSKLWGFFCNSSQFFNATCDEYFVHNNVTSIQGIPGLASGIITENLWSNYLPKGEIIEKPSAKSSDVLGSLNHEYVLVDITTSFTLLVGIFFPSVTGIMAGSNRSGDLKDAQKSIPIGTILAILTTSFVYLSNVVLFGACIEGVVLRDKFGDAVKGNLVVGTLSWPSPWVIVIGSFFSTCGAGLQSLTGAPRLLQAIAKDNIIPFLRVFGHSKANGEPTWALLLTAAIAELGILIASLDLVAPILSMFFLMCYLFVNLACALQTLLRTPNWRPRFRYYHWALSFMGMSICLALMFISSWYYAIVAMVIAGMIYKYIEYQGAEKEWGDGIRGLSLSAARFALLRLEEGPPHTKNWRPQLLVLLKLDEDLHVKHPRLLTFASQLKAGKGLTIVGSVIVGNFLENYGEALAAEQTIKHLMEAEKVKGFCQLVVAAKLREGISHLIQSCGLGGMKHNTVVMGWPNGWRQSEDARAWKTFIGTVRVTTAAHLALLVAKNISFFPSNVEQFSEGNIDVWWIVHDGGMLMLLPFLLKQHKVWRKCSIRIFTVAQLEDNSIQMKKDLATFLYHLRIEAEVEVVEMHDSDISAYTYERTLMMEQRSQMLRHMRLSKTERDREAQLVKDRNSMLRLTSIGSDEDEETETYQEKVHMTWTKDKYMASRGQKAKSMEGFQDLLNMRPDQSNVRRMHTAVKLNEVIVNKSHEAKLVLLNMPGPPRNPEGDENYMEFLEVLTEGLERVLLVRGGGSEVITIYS
In words: TI+ flux assay, HEK-293 cells expressing KCC3. It is filed as cell-based. As to conditions: read-out: concentration at which effects on KCC3 were seen (EC50 chart FIG. 1G). As for the experimental part:
FLIPR TI Flux assay. HEK-293 cells were washed with HBSS, and then incubated with loading buffer containing TI sensitive fluorescent dye (https://www.moleculardevices.com), 20 μM bumetanide 20 μM ouabain and 2.5 mM probenecid for 1 h at room temperature (RT) under control conditions or with drugs in the dark using a FlexStation 3 microplate reader (Molecular Devices) and imaged […] for 30 min. Stimulus buffer was added containing 5 mM K^+/0.5 mM Tl^+ and cells were imaged every 1.5 over a 190 second time course The initial rate Tl^+ uptake (Relative Fluorescence Units (RFU) per second) was determined following addition of the stimulus buffer as outlined previously (Conway et al., 2017, supra) (Lee et al., 2022, supra).
Several studies have shown that the activity and plasma membrane accumulation of KCC2 is potentiated via phosphorylation of S940, a process mediated by the activity of protein kinase C and protein phosphatase 1 (Lee et al., 2011, supra; Lee et al., J Biol Chem 282, 29777-29784 (2007); Moore et al., Proc. Natl. Acad. Sci. U.S.A. 115, 10166-10171 (2018); Moore et al., Trends Neurosci. 40, 555-571 (2017); Silayeva et al., Proc. Natl. Acad. Sci. U.S.A. 112, 3523-3528 (2015)). […] Compared to KCC2, effects on KCC3, KCC4, and NKCC1 were only seen at concentrations more than 35-fold that of KCC2 (>100 μM) (FIG. 1G).

A further data set concerns hippocampal neurons. Briefly: whole cell patch-clamp recording of EGABA with imposed Cl− load in hippocampal neurons. It is filed as cell-based, Sprague Dawley. As to conditions: incubated 1 h, 32 mM Cl− load, 5 min after break-in, controls −47.4±2.3. As for the experimental part:
Neuronal Cultures. Hippocampal neurons were prepared from Sprague Dawley E18 embryos and plated at 450,000 per dish and maintained at 37° C. in a humidified 5% CO2 incubator for 10-25 days before experimentation (Lee et al., Nat. Neurosci. 14, 736-743 (2011)).
Neuronal Patch clamp assays. Neuronal cell culture recordings were performed in bath saline at 34° C. For gramicidin perforated-patch experiments, pipettes contained (in mM): 140 KCl and 10 HEPES, pH 7.4 KOH. For whole-cell experiments, pipettes contained (in mM): 115 K-meth-SO4, 30 KCl, 2 Mg-ATP, 4 Na-ATP, 0.4 Na-GTP, and 10 HEPES, pH 7.4 KOH. Bath saline contained the following (in mM): 140 NaCl, 2.5 KCl, 2.5 CaCl2, 2.5 MgCl2, 10 HEPES, and 11 glucose, pH 7.4 NaOH (Kontou et al., 2021, supra). All compound solutions were applied to cells using a three-barreled 700 μm pipe positioned just above the cell (Warner Instruments). […] All voltages from whole-cell experiments were corrected offline using a calculated liquid junction potential value (13.6 mV) in Clampex (Molecular Devices). For gramicidin perforated-patch experiments, intracellular Cl^− values were back-calculated using measured EGABA values and the Nernst equation: […]
5 min after break-in, an initial EGABA value was determined and the effects of a subsequent 5 min incubation with VU0463271 was assessed.

A short description of data set [1]: PK studies, brain and plasma levels by LC-MS/MS. It is filed as in vivo. The note with it: mice. The method, then: PK studies. […] Plasma and brain samples were rapidly frozen on dry ice.
Drug accumulation in the brain was examined following SC injection (FIG. 4C; 50 mg/kg).

In the case of `C[C@@H]1CN(c2nc3c(c(Nc4ccc(C5CCCCC5)cc4)n2)COC3)CCO1` [Compound A, (R)—N-(4-cyclohexylphenyl)-2-(2-methylmorpholino)-5,7-dihydrofuro[3,4-d]pyrimidin-4-amine], on KCC3, the EC50 was greater than 100 µM. For the same compound, the basal EGABA in the data set with hippocampal neurons was -59.3 ± 2.1 mV. Further, the “time at which accumulation in the brain was evident” value in data set [1] (25 mg/kg IV bolus) was no more than 30 min. In data set [1] (SC 50 mg/kg), the “brain level 8 h later” value is recorded as “maintained”, the “time at which accumulation in the brain was detected” value was found to be 30 min and the “time of maximal concentration in the brain” value was 4 h.
